# From ChEMBL document CHEMBL1201862, “PubChem BioAssay data set” (2004)
#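 Each compound was tested at five concentrations against cells in 96-well plates for 48 hours. GI50 = concentration required for 50% inhibition of growth.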 Calls of active or inactive are those of the source. Rule as the data show it: active = GI50 up to about 1.1 µM and inactive = higher.
# Assays:
# Assay in all cases: growth of human tumour cells (NCI), 48 h
# [1] = system: MOLT-4
# [2] = system: RPMI-8226
# [3] = system: SW-620
# [4] = system: SF-295
# [5] = system: SK-MEL-28
# [6] = system: PC-3
# [7] = system: SNB-75
# [8] = system: HOP-92
# [9] = system: SN12C
# [10] = system: A498
# [11] = system: HCT-15
# [12] = system: HCT-116
# [13] = system: OVCAR-3
# [14] = system: UO-31
# [15] = system: SK-MEL-5
# [16] = system: K562
# [17] = system: HT-29
# [18] = system: SNB-19
# [19] = system: IGROV-1
# [20] = system: TK-10
SMILES,GI50 [1],GI50 [2],GI50 [3],GI50 [4],GI50 [5],GI50 [6],GI50 [7],GI50 [8],GI50 [9],GI50 [10],GI50 [11] [µM],GI50 [12],GI50 [13],GI50 [14],GI50 [15],GI50 [16],GI50 [17],GI50 [18],GI50 [19],GI50 [20]
c1ccc(/C(=N/Nc2ccccn2)c2ncccn2)cc1,0.0662 µM (active),1.39 µM (inactive),0.0982 µM (active),3.6 µM (inactive),3.93 µM (inactive),9.16 µM (inactive),1.87 µM (inactive),2.96 µM (inactive),0.488 µM (active),> 100 µM (inactive),0.526,0.524 µM (active),0.386 µM (active),0.617 µM (active),0.745 µM (active),0.121 µM (active),< 0.01 µM (active),4.26 µM (inactive),2.07 µM (inactive),
COc1ccc(/C=C2\CCS(=O)(=O)c3ccccc3C2=O)cc1,18.1 µM (inactive),19.3 µM (inactive),20.9 µM (inactive),35 µM (inactive),26.9 µM (inactive),27.5 µM (inactive),33.3 µM (inactive),36 µM (inactive),28.3 µM (inactive),20.9 µM (inactive),19.6,17.1 µM (inactive),30 µM (inactive),19.7 µM (inactive),,30.1 µM (inactive),18.8 µM (inactive),24.5 µM (inactive),18.2 µM (inactive),23.2 µM (inactive)
COc1ccc(-c2cc(-c3ccncc3)nc(N)c2-c2ccc(F)cc2)cc1,73.3 µM (inactive),> 100 µM (inactive),9.18 µM (inactive),80.9 µM (inactive),,67.1 µM (inactive),11.5 µM (inactive),83.4 µM (inactive),,46.3 µM (inactive),8.91,11.9 µM (inactive),27.9 µM (inactive),17.3 µM (inactive),35.1 µM (inactive),> 100 µM (inactive),11.7 µM (inactive),41.5 µM (inactive),10.6 µM (inactive),35.2 µM (inactive)
CCOC(=O)/C(=C\c1c[nH]c2ccccc12)P(=O)(OCC)OCC,55.1 µM (inactive),33.5 µM (inactive),45.7 µM (inactive),39.9 µM (inactive),36.8 µM (inactive),17.4 µM (inactive),26.5 µM (inactive),29.2 µM (inactive),30.5 µM (inactive),28.8 µM (inactive),27.7,32.9 µM (inactive),19.3 µM (inactive),,55.8 µM (inactive),50.9 µM (inactive),28.4 µM (inactive),62.7 µM (inactive),39 µM (inactive),42.6 µM (inactive)
CCOC(=O)c1cn(C)c(=S)n2c1nc1ccccc12,95.7 µM (inactive),30.9 µM (inactive),> 100 µM (inactive),59.4 µM (inactive),> 100 µM (inactive),48.1 µM (inactive),> 100 µM (inactive),42.8 µM (inactive),> 100 µM (inactive),22.3 µM (inactive),91,54.3 µM (inactive),> 100 µM (inactive),4.73 µM (inactive),86.7 µM (inactive),> 100 µM (inactive),,83.8 µM (inactive),34.3 µM (inactive),
COc1ccc2cc(Oc3ccc(Cl)cc3)c(=O)oc2c1,> 100 µM (inactive),> 100 µM (inactive),> 100 µM (inactive),60.5 µM (inactive),> 100 µM (inactive),> 100 µM (inactive),> 100 µM (inactive),> 100 µM (inactive),> 100 µM (inactive),93.5 µM (inactive),> 100,> 100 µM (inactive),> 100 µM (inactive),> 100 µM (inactive),> 100 µM (inactive),> 100 µM (inactive),> 100 µM (inactive),> 100 µM (inactive),> 100 µM (inactive),> 100 µM (inactive)
C[C@H]1[C@H](C)N1CC(O)Cn1ccnc1[N+](=O)[O-] (some centres not stated),> 67.6 µM (inactive),> 100 µM (inactive),> 100 µM (inactive),> 100 µM (inactive),> 100 µM (inactive),> 100 µM (inactive),> 100 µM (inactive),1 µM (active),> 100 µM (inactive),> 100 µM (inactive),> 100,> 100 µM (inactive),> 100 µM (inactive),> 100 µM (inactive),> 100 µM (inactive),> 100 µM (inactive),> 100 µM (inactive),> 100 µM (inactive),> 100 µM (inactive),> 100 µM (inactive)
CC(C)OP(=O)(OC(C)C)/C(C#N)=C/c1c[nH]c2ccccc12,88.3 µM (inactive),> 100 µM (inactive),> 100 µM (inactive),38.9 µM (inactive),> 100 µM (inactive),67.6 µM (inactive),72.6 µM (inactive),36.8 µM (inactive),> 100 µM (inactive),> 100 µM (inactive),> 100,> 100 µM (inactive),34 µM (inactive),,51.3 µM (inactive),> 100 µM (inactive),> 100 µM (inactive),> 100 µM (inactive),> 100 µM (inactive),> 100 µM (inactive)
